# In publication PMC11968843, “Sulphostin-inspired N-phosphonopiperidones as selective covalent DPP8 and DPP9 inhibitors” (Nature Communications, 2025):
# “And” between values parts separate entries of the source, which are not always exact repeats. Equal values may be shown once.
# Columns and labels:
# PREP = target: T1, PREP (Homo sapiens, UniProt P48147); experiment: PREP biochemical inhibition assay (GP-AMC substrate, IC50); conditions: for IC50: GP-AMC 2 mM, 10 nM enzyme, 45 min pre-incubation at 30 °C; for PREP activity: individual replicates
# T1 construct: purchased Sigma Aldrich, USA
# T1 sequence (P48147 1-710): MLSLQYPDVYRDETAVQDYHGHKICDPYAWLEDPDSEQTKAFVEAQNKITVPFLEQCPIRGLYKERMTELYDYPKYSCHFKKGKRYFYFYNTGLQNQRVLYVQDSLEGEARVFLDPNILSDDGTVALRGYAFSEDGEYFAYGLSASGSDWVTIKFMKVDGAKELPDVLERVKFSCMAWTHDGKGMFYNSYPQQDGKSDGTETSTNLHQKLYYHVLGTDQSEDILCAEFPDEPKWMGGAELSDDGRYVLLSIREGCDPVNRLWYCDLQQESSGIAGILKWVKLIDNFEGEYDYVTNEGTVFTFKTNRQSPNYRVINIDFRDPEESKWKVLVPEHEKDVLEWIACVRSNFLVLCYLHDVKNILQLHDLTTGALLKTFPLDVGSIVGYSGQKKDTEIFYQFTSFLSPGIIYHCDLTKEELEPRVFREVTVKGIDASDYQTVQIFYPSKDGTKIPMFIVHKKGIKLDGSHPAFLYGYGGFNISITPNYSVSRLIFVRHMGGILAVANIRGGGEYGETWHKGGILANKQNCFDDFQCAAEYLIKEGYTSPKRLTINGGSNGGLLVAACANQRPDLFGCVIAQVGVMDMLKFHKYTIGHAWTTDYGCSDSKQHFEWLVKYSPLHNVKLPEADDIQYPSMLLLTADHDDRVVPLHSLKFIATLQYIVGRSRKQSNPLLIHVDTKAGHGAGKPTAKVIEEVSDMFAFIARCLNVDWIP
# Procedure: Enzyme activity of DPP4, DPP8, DPP9 (Proteros Biostructures GmbH, Germany) and PREP (Sigma Aldrich, USA) was determined by measuring the initial velocity of AMC release from the fluorogenic substrate GP-AMC (Sigma Aldrich, USA) using a Tecan Spark® 10 M multimode microplate reader (Tecan Group Ltd., Switzerland) in activity buffer (20 mM HEPES/KOH pH 7.3, 110 mM potassium acetate, 2 mM Mg acetate, 0.5 mM EGTA, 0.02% Tween 20, supplemented with 1 mM DTT) and a final volume of 20 μL for maximal 60 min at 30 °C. Prior to activity measurement, 10 nM enzyme was incubated for 45 min at 30 °C and gentle shaking with the inhibitor compounds in concentrations ranging from 0 to 100 μM. The compounds were dissolved in DMSO and diluted in activity buffer (final DMSO concentration: 1%). […]. IC50 values were calculated using Graph-Pad Prism v10.2.3 using the equation: [Inhibitor] vs. response—Variable slope (four parameters). All measurements were performed in triplicates and error bars represent standard errors of the fit.
# [1] = target: T2, HEK293 cell lysates (proteome-wide targets of probe 9) (Homo sapiens, UniProt P04259); experiment: Competitive ABPP / direct target identification with alkyne probe 9 in HEK293 cell lysates; assay type: binding, H. sapiens; conditions: protein KRT6B
# T2 construct: endogenous in cells; host or cells: HEK293 cell lysate
# [2] = target: T3, HEK293 cell lysates (proteome-wide targets of probe 9) (Homo sapiens, UniProt P06748); experiment: as above; assay type: binding, H. sapiens; conditions: protein NPM1
# T3 construct: endogenous in cells; host or cells: HEK293 cell lysate
# [3] = target: T4, HEK293 cell lysates (proteome-wide targets of probe 9) (Homo sapiens, UniProt P07195); experiment: as above; assay type: binding, H. sapiens; conditions: protein LDHB
# T4 construct: endogenous in cells; host or cells: HEK293 cell lysate
# [4] = target: T5, HEK293 cell lysates (proteome-wide targets of probe 9) (Homo sapiens, UniProt P07900); experiment: as above; assay type: binding, H. sapiens; conditions: protein HSP90AA1
# T5 construct: endogenous in cells; host or cells: HEK293 cell lysate
# [5] = target: T6, HEK293 cell lysates (proteome-wide targets of probe 9) (Homo sapiens, UniProt P09211); experiment: as above; assay type: binding, H. sapiens; conditions: protein GSTP1
# T6 construct: endogenous in cells; host or cells: HEK293 cell lysate
# [6] = target: T7, HEK293 cell lysates (proteome-wide targets of probe 9) (Homo sapiens, UniProt P12277); experiment: as above; assay type: binding, H. sapiens; conditions: protein CKB
# T7 construct: endogenous in cells; host or cells: HEK293 cell lysate
# [7] = target: T8, HEK293 cell lysates (proteome-wide targets of probe 9) (Homo sapiens, UniProt P23528); experiment: as above; assay type: binding, H. sapiens; conditions: protein CFL1
# T8 construct: endogenous in cells; host or cells: HEK293 cell lysate
# [8] = target: T9, HEK293 cell lysates (proteome-wide targets of probe 9) (Homo sapiens, UniProt P46776); experiment: as above; assay type: binding, H. sapiens; conditions: protein RPL27A
# T9 construct: endogenous in cells; host or cells: HEK293 cell lysate
# [9] = target: T10, HEK293 cell lysates (proteome-wide targets of probe 9) (Homo sapiens, UniProt P46781); experiment: as above; assay type: binding, H. sapiens; conditions: protein RPS9
# T10 construct: endogenous in cells; host or cells: HEK293 cell lysate
# [10] = target: T11, HEK293 cell lysates (proteome-wide targets of probe 9) (Homo sapiens, UniProt P49327); experiment: as above; assay type: binding, H. sapiens; conditions: protein FASN
# T11 construct: endogenous in cells; host or cells: HEK293 cell lysate
# [11] = target: T12, HEK293 cell lysates (proteome-wide targets of probe 9) (Homo sapiens, UniProt P50914); experiment: as above; assay type: binding, H. sapiens; conditions: protein RPL14
# T12 construct: endogenous in cells; host or cells: HEK293 cell lysate
# [12] = target: T13, HEK293 cell lysates (proteome-wide targets of probe 9) (Homo sapiens, UniProt Q08211); experiment: as above; assay type: binding, H. sapiens; conditions: protein DHX9
# T13 construct: endogenous in cells; host or cells: HEK293 cell lysate
# [13] = target: T14, HEK293 cell lysates (proteome-wide targets of probe 9) (Homo sapiens, UniProt Q14697); experiment: as above; assay type: binding, H. sapiens; conditions: protein GANAB
# T14 construct: endogenous in cells; host or cells: HEK293 cell lysate
# [14] = target: T15, HEK293 cell lysates (proteome-wide targets of probe 9) (Homo sapiens, UniProt Q14974); experiment: as above; assay type: binding, H. sapiens; conditions: protein KPNB1
# T15 construct: endogenous in cells; host or cells: HEK293 cell lysate
# [15] = target: T16, HEK293 cell lysates (proteome-wide targets of probe 9) (Homo sapiens, UniProt Q15366); experiment: as above; assay type: binding, H. sapiens; conditions: protein PCBP2
# T16 construct: endogenous in cells; host or cells: HEK293 cell lysate
# [16] = target: T17, HEK293 cell lysates (proteome-wide targets of probe 9) (Homo sapiens, UniProt Q6V1X1); experiment: as above; assay type: binding, H. sapiens
# T17 construct: endogenous in cells; host or cells: HEK293 cell lysate
# [17] = target: T18, HEK293 cell lysates (proteome-wide targets of probe 9) (Homo sapiens, UniProt Q7Z5P9); experiment: as above; assay type: binding, H. sapiens; conditions: protein MUC19
# T18 construct: endogenous in cells; host or cells: HEK293 cell lysate
# [18] = target: T19, HEK293 cell lysates (proteome-wide targets of probe 9) (Homo sapiens, UniProt Q99832); experiment: as above; assay type: binding, H. sapiens; conditions: protein CCT7
# T19 construct: endogenous in cells; host or cells: HEK293 cell lysate
# [19] = protein DPP8 (Dipeptidyl peptidase 8)
# T17 sequence (Q6V1X1 whole entry): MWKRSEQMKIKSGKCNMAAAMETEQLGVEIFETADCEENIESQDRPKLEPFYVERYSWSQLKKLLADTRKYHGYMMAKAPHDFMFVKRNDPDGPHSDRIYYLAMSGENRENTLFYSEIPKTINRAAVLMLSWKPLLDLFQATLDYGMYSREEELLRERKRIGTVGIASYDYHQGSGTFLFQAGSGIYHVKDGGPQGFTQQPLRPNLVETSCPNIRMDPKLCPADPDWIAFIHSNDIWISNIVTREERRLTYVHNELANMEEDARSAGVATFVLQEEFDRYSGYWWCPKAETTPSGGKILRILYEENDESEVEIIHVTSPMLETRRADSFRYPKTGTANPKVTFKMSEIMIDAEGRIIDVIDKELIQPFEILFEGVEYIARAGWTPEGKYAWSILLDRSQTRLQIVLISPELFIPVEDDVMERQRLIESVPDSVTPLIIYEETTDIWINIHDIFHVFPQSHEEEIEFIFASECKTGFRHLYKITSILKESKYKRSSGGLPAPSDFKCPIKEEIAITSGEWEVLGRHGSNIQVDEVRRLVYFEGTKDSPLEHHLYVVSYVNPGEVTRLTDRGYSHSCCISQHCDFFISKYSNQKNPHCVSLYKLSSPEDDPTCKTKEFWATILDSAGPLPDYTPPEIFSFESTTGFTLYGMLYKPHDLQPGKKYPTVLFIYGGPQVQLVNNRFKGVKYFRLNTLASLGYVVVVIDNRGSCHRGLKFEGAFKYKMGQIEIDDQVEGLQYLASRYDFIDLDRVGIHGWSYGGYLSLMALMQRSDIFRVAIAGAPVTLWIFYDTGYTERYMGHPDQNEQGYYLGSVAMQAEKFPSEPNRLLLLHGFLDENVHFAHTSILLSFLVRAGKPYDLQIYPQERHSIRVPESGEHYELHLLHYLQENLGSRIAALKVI
# T3 sequence (P06748 whole entry): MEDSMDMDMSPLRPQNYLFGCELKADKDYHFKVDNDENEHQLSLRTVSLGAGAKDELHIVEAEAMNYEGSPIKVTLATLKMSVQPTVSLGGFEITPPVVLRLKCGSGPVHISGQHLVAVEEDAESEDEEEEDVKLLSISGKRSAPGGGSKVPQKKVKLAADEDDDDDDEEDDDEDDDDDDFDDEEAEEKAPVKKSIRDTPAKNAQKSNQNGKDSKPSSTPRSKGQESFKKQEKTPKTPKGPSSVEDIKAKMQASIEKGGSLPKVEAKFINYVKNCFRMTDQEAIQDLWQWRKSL
# T19 sequence (Q99832 whole entry): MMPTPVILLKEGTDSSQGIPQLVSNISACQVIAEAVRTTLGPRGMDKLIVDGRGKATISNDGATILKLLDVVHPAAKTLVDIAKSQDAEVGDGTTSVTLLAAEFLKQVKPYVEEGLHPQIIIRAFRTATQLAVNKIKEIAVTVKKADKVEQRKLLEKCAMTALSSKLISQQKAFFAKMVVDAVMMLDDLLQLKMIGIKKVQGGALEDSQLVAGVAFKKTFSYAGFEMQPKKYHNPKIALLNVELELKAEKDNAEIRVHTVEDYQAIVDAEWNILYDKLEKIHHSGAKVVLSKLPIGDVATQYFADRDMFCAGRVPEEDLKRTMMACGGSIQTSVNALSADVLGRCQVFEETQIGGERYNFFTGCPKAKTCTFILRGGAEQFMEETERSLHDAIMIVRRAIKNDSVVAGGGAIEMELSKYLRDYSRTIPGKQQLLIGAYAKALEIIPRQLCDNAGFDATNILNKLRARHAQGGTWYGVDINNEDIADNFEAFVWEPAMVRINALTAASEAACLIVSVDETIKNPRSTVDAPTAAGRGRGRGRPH
# T14 sequence (Q14697 29-944): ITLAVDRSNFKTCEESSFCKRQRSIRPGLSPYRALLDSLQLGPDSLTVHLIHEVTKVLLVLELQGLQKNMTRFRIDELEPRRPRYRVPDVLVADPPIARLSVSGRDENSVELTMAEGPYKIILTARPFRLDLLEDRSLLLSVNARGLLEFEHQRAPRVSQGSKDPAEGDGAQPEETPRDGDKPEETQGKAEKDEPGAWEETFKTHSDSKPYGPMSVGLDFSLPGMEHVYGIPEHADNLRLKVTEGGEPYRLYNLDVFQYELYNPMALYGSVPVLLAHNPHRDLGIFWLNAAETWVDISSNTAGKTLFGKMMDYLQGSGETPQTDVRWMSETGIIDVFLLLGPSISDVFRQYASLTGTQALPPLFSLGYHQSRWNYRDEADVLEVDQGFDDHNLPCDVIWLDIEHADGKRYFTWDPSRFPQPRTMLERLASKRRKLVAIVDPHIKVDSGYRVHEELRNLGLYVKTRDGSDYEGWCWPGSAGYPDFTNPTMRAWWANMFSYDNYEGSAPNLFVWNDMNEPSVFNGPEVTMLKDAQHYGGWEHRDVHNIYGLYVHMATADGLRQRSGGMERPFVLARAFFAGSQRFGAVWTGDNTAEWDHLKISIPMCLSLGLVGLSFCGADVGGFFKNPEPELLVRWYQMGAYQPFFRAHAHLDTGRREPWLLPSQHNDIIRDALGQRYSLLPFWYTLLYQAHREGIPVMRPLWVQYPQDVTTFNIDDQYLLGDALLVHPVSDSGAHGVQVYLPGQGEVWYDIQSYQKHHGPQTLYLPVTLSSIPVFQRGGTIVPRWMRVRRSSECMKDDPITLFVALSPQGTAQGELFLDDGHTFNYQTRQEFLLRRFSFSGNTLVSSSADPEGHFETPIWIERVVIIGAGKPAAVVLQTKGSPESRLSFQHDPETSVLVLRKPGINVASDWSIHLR
# T6 sequence (P09211 whole entry): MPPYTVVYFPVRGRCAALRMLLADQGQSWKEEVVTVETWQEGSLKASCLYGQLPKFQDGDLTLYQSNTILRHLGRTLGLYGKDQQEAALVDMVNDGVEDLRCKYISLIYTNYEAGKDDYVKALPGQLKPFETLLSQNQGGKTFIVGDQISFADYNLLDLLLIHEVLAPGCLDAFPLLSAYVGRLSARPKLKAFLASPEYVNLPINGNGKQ
# T15 sequence (Q14974 whole entry): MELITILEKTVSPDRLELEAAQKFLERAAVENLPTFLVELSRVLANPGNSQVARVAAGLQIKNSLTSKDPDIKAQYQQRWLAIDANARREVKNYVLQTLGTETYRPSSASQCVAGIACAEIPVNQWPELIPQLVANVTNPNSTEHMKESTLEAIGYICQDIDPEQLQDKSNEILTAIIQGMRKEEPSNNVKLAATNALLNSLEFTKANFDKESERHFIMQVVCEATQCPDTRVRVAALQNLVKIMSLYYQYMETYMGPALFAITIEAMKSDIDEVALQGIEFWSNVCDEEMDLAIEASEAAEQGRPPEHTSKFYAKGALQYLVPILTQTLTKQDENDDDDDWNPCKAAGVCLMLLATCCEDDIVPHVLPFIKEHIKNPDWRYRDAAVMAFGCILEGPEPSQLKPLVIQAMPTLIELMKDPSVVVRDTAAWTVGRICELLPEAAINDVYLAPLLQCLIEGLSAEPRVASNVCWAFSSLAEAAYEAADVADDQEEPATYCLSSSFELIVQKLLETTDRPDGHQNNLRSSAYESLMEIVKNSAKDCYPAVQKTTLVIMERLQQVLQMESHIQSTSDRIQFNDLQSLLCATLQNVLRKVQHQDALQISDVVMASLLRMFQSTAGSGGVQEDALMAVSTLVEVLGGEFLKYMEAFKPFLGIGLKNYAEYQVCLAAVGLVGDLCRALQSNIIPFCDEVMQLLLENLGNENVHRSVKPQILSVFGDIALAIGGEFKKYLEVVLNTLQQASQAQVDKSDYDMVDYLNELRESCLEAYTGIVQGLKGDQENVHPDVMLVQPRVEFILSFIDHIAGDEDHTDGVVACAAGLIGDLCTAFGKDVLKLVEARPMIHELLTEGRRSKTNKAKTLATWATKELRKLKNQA
# T16 sequence (Q15366 whole entry): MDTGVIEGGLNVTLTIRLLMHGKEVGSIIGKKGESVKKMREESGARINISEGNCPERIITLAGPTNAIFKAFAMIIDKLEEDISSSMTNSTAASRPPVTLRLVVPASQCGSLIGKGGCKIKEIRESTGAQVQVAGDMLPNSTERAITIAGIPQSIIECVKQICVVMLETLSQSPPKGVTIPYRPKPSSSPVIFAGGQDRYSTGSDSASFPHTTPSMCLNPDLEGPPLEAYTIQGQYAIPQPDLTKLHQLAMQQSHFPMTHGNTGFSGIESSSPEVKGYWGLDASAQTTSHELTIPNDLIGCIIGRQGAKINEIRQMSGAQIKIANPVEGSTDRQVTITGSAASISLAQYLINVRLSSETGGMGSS
# T8 sequence (P23528 whole entry): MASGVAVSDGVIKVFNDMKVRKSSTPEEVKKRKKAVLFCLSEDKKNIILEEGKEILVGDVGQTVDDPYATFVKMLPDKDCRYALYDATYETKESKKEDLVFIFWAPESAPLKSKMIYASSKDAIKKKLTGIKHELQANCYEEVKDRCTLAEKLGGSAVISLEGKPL
# T4 sequence (P07195 whole entry): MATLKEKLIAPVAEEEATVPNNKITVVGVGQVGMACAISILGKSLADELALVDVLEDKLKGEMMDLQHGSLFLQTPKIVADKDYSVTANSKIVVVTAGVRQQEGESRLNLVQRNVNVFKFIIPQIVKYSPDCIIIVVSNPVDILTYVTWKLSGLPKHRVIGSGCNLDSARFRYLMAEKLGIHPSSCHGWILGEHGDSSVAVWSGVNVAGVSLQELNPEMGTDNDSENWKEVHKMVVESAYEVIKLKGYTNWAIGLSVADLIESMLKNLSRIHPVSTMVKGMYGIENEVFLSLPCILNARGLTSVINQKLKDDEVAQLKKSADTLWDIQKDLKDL
# T7 sequence (P12277 whole entry): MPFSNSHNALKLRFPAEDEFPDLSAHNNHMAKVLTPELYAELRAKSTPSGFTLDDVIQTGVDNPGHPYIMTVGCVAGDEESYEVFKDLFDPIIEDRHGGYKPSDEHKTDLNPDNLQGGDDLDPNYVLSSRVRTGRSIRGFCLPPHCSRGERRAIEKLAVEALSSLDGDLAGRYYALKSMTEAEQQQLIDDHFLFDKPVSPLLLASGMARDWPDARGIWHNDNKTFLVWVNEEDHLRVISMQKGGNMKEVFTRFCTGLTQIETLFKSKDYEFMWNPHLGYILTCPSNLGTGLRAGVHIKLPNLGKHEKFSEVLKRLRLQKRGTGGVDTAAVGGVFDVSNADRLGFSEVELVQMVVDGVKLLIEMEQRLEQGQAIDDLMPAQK
smiles,measurement,setting,value
C#CCCCP(=O)(OCC)N1CCCC(N)C1=O.O=C(O)C(F)(F)F (mixture of isomers) [Compound 9],IC50,PREP,13.4 µM
same,PREP activity,PREP; c 1562.5 nM,90.6956% and 100.18% and 91.6611%
same,PREP activity,PREP; c 3125 nM,81.4016% and 83.8359% and 86.7341%
same,PREP activity,PREP; c 6250 nM,70.1184% and 68.121% and 70.2915%
same,PREP activity,PREP; c 25000 nM,42.6998% and 39.4794% and 39.8185%
same,PREP activity,PREP; c 50000 nM,17.1276% and 17.8294% and 21.3954%
same,PREP activity,PREP; c 100000 nM,12.8608% and 13.0915% and 11.6555%
same,Log2-fold change (9/DMSO),[1],-0.8544
same,Log2-fold change (9/DMSO),[2],0.3807
same,Log2-fold change (9/DMSO),[3],0.03494
same,Log2-fold change (9/DMSO),[4],-0.06179
same,Log2-fold change (9/DMSO),[5],1.848
same,Log2-fold change (9/DMSO),[6],0.9157
same,Log2-fold change (9/DMSO),[7],0.4225
same,Log2-fold change (9/DMSO),[8],-2.372
same,Log2-fold change (9/DMSO),[9],0.8119
same,Log2-fold change (9/DMSO),[10],0.4818
same,Log2-fold change (9/DMSO),[11],0.6133
same,Log2-fold change (9/DMSO),[12],-0.5054
same,Log2-fold change (9/DMSO),[13],0.2816
same,Log2-fold change (9/DMSO),[14],1.065
same,Log2-fold change (9/DMSO),[15],1.083
same,Initial LFQ intensity of DPP8 (log2-transformed),"[16]; labeled with 9, single replicates",21.9345 and 21.2153 and 19.9933
same,Log2-fold change (9/DMSO),[16]; [19],1.124
same,Log2-fold change (9/DMSO),[17],-1.528
same,Log2-fold change (9/DMSO),[18],-0.08905
CCCCCc1ccc(SCCP(=O)(OCC)N2CCC[C@H](N)C2=O)cc1.O=C(O)C(F)(F)F (some centres unmarked) [Compound 16],IC50,PREP,> 50 µM
same,PREP activity,PREP; c 1562.5 nM,98.7862% and 85.8025% and 104.946%
same,PREP activity,PREP; c 3125 nM,105.742% and 108.717% and 107.921%
same,PREP activity,PREP; c 6250 nM,96.1256% and 97.1517% and 97.4675%
same,PREP activity,PREP; c 25000 nM,92.3447% and 104.519% and 98.6461%
same,PREP activity,PREP; c 50000 nM,66.9978% and 69.9305% and 64.8732%
same,PREP activity,PREP; c 100000 nM,38.3396% and 47.6921% and 43.692%
same,activity against PREP,PREP; within the nanomolar and low micromolar range (< 50 µM),no activity against PREP
same,Log2-fold change (16/9),[1],1.89
same,Log2-fold change (16/9),[2],-0.43
same,Log2-fold change (16/9),[3],0.1493
same,Log2-fold change (16/9),[4],-0.09553
same,Log2-fold change (16/9),[5],-1.311
same,Log2-fold change (16/9),[6],-0.7041
same,Log2-fold change (16/9),[7],-0.1396
same,Log2-fold change (16/9),[8],0.01928
same,Log2-fold change (16/9),[9],0.2438
same,Log2-fold change (16/9),[10],-0.4881
same,Log2-fold change (16/9),[11],-1.54
same,Log2-fold change (16/9),[12],-0.1923
same,Log2-fold change (16/9),[13],0.1876
same,Log2-fold change (16/9),[14],-1.716
same,Log2-fold change (16/9),[15],-0.4376
same,DPP8 identification after pre-incubation with competitor,"[16]; labeled with 9, pre-incubated with competitor",peptides of DPP8 were identified
same,Log2-fold change (16/9),[16]; [19],-1.618
same,Log2-fold change (16/9),[17],0.8224
same,Log2-fold change (16/9),[18],-1.548
